Source: patent publication US4443448A, “Indane derivatives, pharmaceutical compositions thereof and method of preparation” (priority 1980, dated 1984)
Read-outs that look alike come from different tables or passages of the source.

Assays:
methylphenidate = assay: Methylphenidate antagonism in mice; type: in vivo; details: for ED50: Mus musculus, ip
Method: Methylphenidate antagonism (ED50 mg/kg i.p.)
(§1) Perspex observation cages without bottom and lid, consisting of 5 sections each measuring 12×25×30 cm.
3×2 mice are used for each dose level. Two or 24 hours after injection of test substance, methylphenidate, 60 mg/kg, is injected s.c. After administration of methylphenidate the mice are placed in the observation cages, 2 in each cage, where they remain for exactly 1 hour. The cages were placed on corrugated paper, the corrugations facing upwards. It is examined whether the mice have been biting the corrugated paper or not. […] If one or more of the control pairs have not been biting, the test has to be repeated on a new set of mice.
The result is stated in fractions: 0/3, 1/3, 2/3 and 3/3 where 0, 1, 2 and 3 are the number of pairs which have not been biting on receipt of the dose in question.

amphetamine = assay: Amphetamine antagonism in rats; type: in vivo; details: Rattus norvegicus, po, rats, p.o., amphetamine 10 mg/kg base i.v.; read-out: Amphetamine antag. ED50 p.o.
Method: Amphetamine antagonism (ED50 mg/kg i.p.)
as §1
The test substance is given p.o. in a reasonable dose based on the determined LD50. Two or 24 hours later an intravaneous injection of amphetamine sulphate 13.6 mg/kg (10 mg/kg amphetamine base) is given, after which the rats are placed individually in the cages. The cages are placed on white corrugated paper. Five rats are used for each dose level. Observations are made after 55 minutes and 65 minutes-observation time: 1 minute. The animals are observed for stereotypy (movements of the head, compulsive gnawing). […] If the compound has full antagonistic effect another group of rats is used at a lower dose. […] The result is stated as fractions: 0/5, 1/5, 2/5, 3/5, 4/5 and 5/5, where 0, 1, 2, 3, 4 and 5 indicate the number of rats which have not shown stereotypy at the dose in question. The results are calculated as ED50 in mg/kg.

in vivo [1] = assay: in vivo; design: species or system rats; details: for Ratio catalep./Amphet.: catalepsy ED50 / amphetamine antagonism ED50; for ED50: rat, in vivo, po, rats, p.o., strongest effect within first 6 hours, read-out: Catalep. (catalepsy wire mesh, rat, max, ED50)
Method: A vertical wire netting (50 cm×49 cm). The meshes (openings) of the netting are square (1 cm×1 cm). The wire diameter is 2 mm.
The animals are labeled and used in groups of five. The test substance is administered orally (p.o) at 4 dose levels selected from the fixed dose scale.
The animals are placed in the middle of the vertical wire netting 60, 120, 180, 240, 300 and 360 minutes after administration of the test compound. The animals are considered cataleptic when they remain immobile during a period of 15 seconds.
This cataleptic reaction is designated +. If the rats are "atonic" and passively slide down the wire mesh they are considered not cataleptic. If the animals climb up and down the wire mesh they are nor cataleptic.
In both situations the designation--is used.

[2] = Mouse grid shock (analgesia); type: in vivo; details: mice, minimal effective dose, in mg/kg
Method: The mouse grid consists of a perspex cage with wire grid bottom and a perspex lid, on which is placed a microphone sensitive to the frequency of a mouse squeak. A stimulator with motordriven potentiometer applies a sequence of square wave impulses of continuously increasing milliamperage to the grid. Frequency of impulses 20 cycles/sec., duration 5 msec. Milliamperage is recorded on a digital amperemeter connected to the stimulator. Activation of the microphone by a mouse-squeak cuts off the current and the final milliamperage appears on the meter.
Five mice are used for each dose level. Each mouse serves as its own control.
Prior to the administration of test substance the animals are placed on the grid one at a time, and the pain threshold is determined by increasing the current intensity until the mouse squeaks. The pain threshold may be read on the milliamperemeter. Fifteen minutes and 30 minutes after administration of test substance the mice are tested again and the pain thresholds recorded.
Analgesic effect is present, when the pain threshold is increased over the pre-dosing value (control value). The results are stated as % increase in pain threshold calculated on the basis of the control value.
The registration can also be done as an on-line procedure. In this case the punching instruction and punching cards will be provided automatically and the results will be registered as a minimal effective dose (MED) determined after van der Waerdens X-test.

in vivo [3] = details: iv
[4] = 2 h, read-out: MePh antag. ED50 2 hr i.p., mice, test substance i.p., 2 hr before methylphenidate 60 mg/kg s.c.
[5] = read-out: MePh antag. ED50 2 hr i.p., mice, test substance i.p., 2 hr before methylphenidate 60 mg/kg s.c.

Row | Compound | ED50 (methylphenidate; [4]) | ED50 (amphetamine) | Ratio catalep./Amphet. (in vivo [1]) | ED50 (in vivo [1]) | MED Grid Shock [2] | LD50 (in vivo [3]) | ED50 (methylphenidate; [5]) | MePh antag. ED50 2 hr i.p. (methylphenidate; mice, test substance i.p., 2 hr before methylphenidate 60 mg/kg s.c.)
1 | OCCN1CCN([C@@H]2C[C@@H](c3ccc(F)cc3)c3ccc(F)cc32)CC1 (relative stereo) [Lu 13-117, 1-(2-hydroxyethyl)-4-(3-(4'-fluorophenyl)-6-fluoro-1-indanyl)piperazine] | 3 mg/kg | 6 mg/kg | 13 | 79 mg/kg | 0.63 | 113 mg/kg | – | –
2 | CN1CCN([C@@H]2C[C@@H](c3ccccc3)c3ccc(Cl)cc32)CC1 (relative stereo) [Lu 14-063] | 29 mg/kg | > 40 mg/kg | – | > 40 mg/kg | 5 | 80 mg/kg | – | –
3 | CN1CCN([C@@H]2C[C@H](c3ccc(F)cc3)c3ccc(Cl)cc32)CC1 (relative stereo) [Lu 14-069] | 5.7 mg/kg | > 20 mg/kg | – | > 40 mg/kg | 5 | 65 mg/kg | – | –
4 | Cc1ccc2c(c1)[C@H](N1CCN(C)CC1)C[C@H]2c1ccc(F)cc1 (relative stereo) [Lu 17-048] | 0.6 mg/kg | 6.7 mg/kg | 0.7 | 4.8 mg/kg | 0.16 | 80 mg/kg | – | –
5 | Cc1ccc2c(c1)[C@H](N1CCN(CCO)CC1)C[C@H]2c1ccc(F)cc1 (relative stereo) [Lu 17-050] | 3.4 mg/kg | 9.4 mg/kg | 0.8 | 7.7 mg/kg | 0.63 | 80 mg/kg | – | –
6 | CSc1ccc2c(c1)[C@H](N1CCN(CCO)CC1)C[C@H]2c1ccc(F)cc1 (relative stereo) [Lu 17-053] | 1.3 mg/kg | 9.1 mg/kg | – | 6.2 mg/kg | 2.5 | 68 mg/kg | – | –
7 | CSc1ccc2c(c1)[C@H](N1CCN(C)CC1)C[C@@H]2c1ccc(F)cc1 (relative stereo) [Lu 17-056] | 20 mg/kg | – | – | – | 5 | – | – | –
8 | OCCN1CCN([C@@H]2C[C@@H](c3ccccc3)c3ccccc32)CC1 (relative stereo) [Lu 17-061] | > 40 mg/kg | – | – | – | 10 | – | – | –
9 | CN1CCN([C@@H]2C[C@@H](c3ccccc3)c3ccccc32)CC1 (relative stereo) [Lu 17-091] | > 40 mg/kg | – | – | – | 10 | – | – | –
10 | OCCN1CCN([C@@H]2C[C@@H](c3ccc(F)cc3)c3cc(Cl)ccc32)CC1 (relative stereo) [Lu 17-116] | > 40 mg/kg | – | – | – | 10 | – | – | –
11 | OCCN1CCN([C@@H]2C[C@H](c3ccc(F)cc3)c3ccc(Cl)cc32)CC1 (relative stereo) [Lu 17-120] | 3.2 mg/kg | – | – | > 20 mg/kg | 2.5 | – | – | –
12 | OCCN1CCN([C@@H]2C[C@H](c3ccc(F)cc3)c3ccccc32)CC1 (relative stereo) [Lu 17-124] | > 40 mg/kg | – | – | – | 5 | – | – | –
13 | O=C1OCCN1CCN1CCN(C2CC(c3ccc(F)cc3)c3ccc(F)cc32)CC1 (stereo not shown) [Lu 17-039] | 9.1 mg/kg | 51 mg/kg | – | > 80 mg/kg | – | 113 mg/kg | – | –
14 | O=C1NCCN1CCN1CCN(C2CC(c3ccc(F)cc3)c3ccc(F)cc32)CC1 (stereo not shown) [Lu 17-045] | > 40 mg/kg | > 80 mg/kg | – | > 80 mg/kg | 2.5 | – | – | –
15 | CN1CCN(C2CC(c3ccc(F)cc3)c3cc(F)ccc32)CC1 (stereo not shown) [Lu 17-071] | > 40 mg/kg | – | – | 31 mg/kg | 10 | – | – | –
16 | Cc1ccc2c(c1)C(N1CCN(CC3CC3)CC1)CC2c1ccc(F)cc1 (stereo not shown) [Lu 17-130] | 5 mg/kg | > 40 mg/kg | – | > 40 mg/kg | 5 | – | – | –
17 | O=C(CCCN1CCN(C2CC(c3ccc(F)cc3)c3ccc(F)cc32)CC1)c1ccc(F)cc1 (stereo not shown) [Lu 17-145] | > 40 mg/kg | – | – | – | 5 | – | – | –
18 | CS(=O)(=O)c1ccc2c(c1)C(N1CCN(CCO)CC1)CC2c1ccc(F)cc1 (stereo not shown) [Lu 18-041] | 10 mg/kg | – | – | – | 5 | > 160 mg/kg | – | –
19 | OCC(CO)N1CCN(C2CC(c3ccc(F)cc3)c3ccc(F)cc32)CC1 (stereo not shown) [Lu 18-134, 1-(1,3-dihydroxy-2-propy)-4-(3-(4'-fluorophenyl)-6-fluoro-1-indanyl)piperazine] | 1.9 mg/kg | 11.7 mg/kg | 4.9 | 57 mg/kg | < 5 | – | – | –
20 | Fc1ccc(C2CC(N3CCN(CC4CC4)CC3)c3cc(F)ccc32)cc1 (stereo not shown) [Lu 18-157, 1-cyclopropylmethyl-4-(3-(4'-fluorophenyl)-6-fluoro-1-indanyl)piperazine] | 5 mg/kg | – | – | – | – | 68 mg/kg | – | –
21 | Fc1ccc(C2CC(N3CCN(CCc4ccccc4)CC3)c3cc(F)ccc32)cc1 (stereo not shown) [Lu 18-159] | 15 mg/kg | – | – | – | – | 40 mg/kg | – | –
22 | Fc1ccc(C2CC(N3CCN(CC=Cc4ccccc4)CC3)c3cc(F)ccc32)cc1 (stereo not shown) [Lu 18-162, 1-(3-phenyl-2-propenyl)-4-(3-(4'-fluorophenyl)-6-fluoro-1-indanyl)piperazine] | 29 mg/kg | – | – | – | – | – | – | –
23 | OCCCCN1CCN(C2CC(c3ccc(F)cc3)c3ccc(C(F)(F)F)cc32)CC1 (stereo not shown) [Lu 18-182] | 0.2 mg/kg | 0.2 mg/kg | – | 0.2 mg/kg | – | 56 mg/kg | – | –
24 | OCC(CO)N1CCN(C2CC(c3ccc(F)cc3)c3ccc(C(F)(F)F)cc32)CC1 (stereo not shown) [Lu 18-185] | 0.2 mg/kg | 0.3 mg/kg | – | 0.3 mg/kg | – | – | – | –
25 | COc1ccc2c3c1O[C@H]1[C@@H](O)C=C[C@H]4[C@@H](C2)N(C)CC[C@@]341 [codeine, reference compound] | – | – | – | – | 20 | 110 mg/kg | > 20 mg/kg | –
26 | CCC(=O)O[C@](Cc1ccccc1)(c1ccccc1)[C@H](C)CN(C)C [dextropropoxyphene, reference compound] | – | – | – | – | 20 | 34 mg/kg | > 20 mg/kg | –
27 | CN1CC[C@]23c4c5ccc(O)c4O[C@H]2[C@@H](O)C=C[C@H]3[C@H]1C5 [morfine, reference compound] | – | – | – | – | 2.5 | – | – | > 40 mg/kg
